# What was measured:
# Type in all cases: physicochemical
# [1] = Stability study of tablets (40°C/75%RH): related substances; details: condition N/A
# Method: The inventors produced tablet 1 (40 mg) and the tablet 2 (10 mg) according to the formulations in Example 1 and Example 2. The above samples were stored under conditions of 40°C/75%RH (open), 40°C/75%RH (sealed), and 40°C/75%RH (sealed+1 g desiccant) to investigate dissolutions and related substances.
# [2] = pH-dependent solubility study; details: increasing with rising pH
# Source text: Following oral administration, the drug can be absorbed at multiple different sites along the gastrointestinal tract (including via the stomach, duodenum, jejunum, ileum, and colon). There is a significant pH change between the stomach (pH 1-3.5) and the small intestine (pH 4-8), resulting in different pH conditions at each absorption site. […] In dissolution studies, it was observed that the sink condition can be satisfied in pH 6.8 medium supplemented with SDS.
# [3] = Solid form stability on standing (XRD/PLM)
# Source text: The resulting solid sample was subjected to a corresponding characterization test. An XRD pattern of the sample can be seen in FIG. 8.
# A crystal form E sample was obtained by suspending and stirring the amorphous sample prepared in Example 2 in a 1,4-dioxane/n-heptane solvent system at room temperature. XRD results of the sample can be seen in FIG. 9. […] On this basis, it was inferred that the crystal form E was a metastable crystal form.
# XRD results of the sample can be seen in FIG. 17.
# XRD results of the sample can be seen in FIG. 20. TGA/DSC results can be seen in FIG. 21. […] An ^1H NMR spectrum of the crystal form D was obtained by a test in DMSO-d6, and no obvious solvent residue was observed. […] Based on nuclear magnetic resonance data and heating test results of the sample, it was inferred that the crystal form D was a hydrate crystal form.
# [4] = listed as Active pharmaceutical ingredient^*2
structure (smiles),measurement,setting,value
C[C@@H](Nc1ccn2ncc(C3=NOC(C)(C)N3)c2n1)c1cc(F)cc(F)c1F.O [Active pharmaceutical ingredient],Individual impurity (RRT) 0.56,[1],<0.05%
same,Individual impurity (RRT) 0.66/ 0.67/ 0.69/ 0.70,[1],0.22%
same,Individual impurity (RRT) 0.71/ 0.72/ 0.73/ 0.74,[1],0.18%
same,Individual impurity (RRT) 0.91,[1],<0.05%
same,Individual impurity (RRT) 1.02,[1],0.27%
same,Individual impurity (RRT) 1.05/ 1.06,[1],0.07%
same,Individual impurity (RRT) 1.07/ 1.08,[1],0.18%
same,Individual impurity (RRT) 1.14,[1],<0.05%
same,Total impurities,[1],0.92%
same,Individual impurity (RRT) 0.71/ 0.72/ 0.73/ 0.74,[1]; [4],0.19%
same,Individual impurity (RRT) 1.02,[1]; [4],0.32%
same,Individual impurity (RRT) 1.07/ 1.08,[1]; [4],0.19%
same,Total impurities,[1]; [4],0.99%
"C[C@@H](Nc1ccn2ncc(C3=NOC(C)(C)N3)c2n1)c1cc(F)cc(F)c1F [TY-2136b, (R)-3-(5,5-dimethyl-4,5-dihydro-1,2,4-oxadiazol-3-yl)-N-(1-(2,3,5-trifluorophenyl)ethyl)pyrazolo[1 ,5-a]pyrimidin-5-amine]",solubility,[2],generally low
C[C@@H](Nc1ccn2ncc(C3=NOC(C)(C)N3)c2n1)c1cc(F)cc(F)c1F [crystal form B],Solid form stability,"[3]; room humidity (17.3%RH), same day",rapidly transformed into a crystal form C
C[C@@H](Nc1ccn2ncc(C3=NOC(C)(C)N3)c2n1)c1cc(F)cc(F)c1F [crystal form D],Solid form stability,[3]; heating to 120°C and cooling to room temperature,transformed into an amorphous form
same,Crystallinity,[3]; standing sealed at room temperature for 2 days,significantly reduced

# — patent EP4813989A1, “CRYSTAL, PHARMACEUTICAL COMPOSITION, PREPARATION METHOD THEREFOR, AND USE THEREOF” (TYK Medicines, Inc., priority 2023, dated 2025)
